# Activity calls are given as the source filed them. The rule behind the calls is not given here.
# Tests used:
# [1] = tested on: V79; test: Cytotoxicity against chinese hamster V79 cells under aerobic condition at 30 uM after 7 days by crystal violet staining; format: functional, Cricetulus griseus
# [2] = tested on: V79; test: Cytotoxicity against chinese hamster V79 cells under anaerobic condition at 2.0 uM after 7 days by crystal violet staining; format: functional, Cricetulus griseus
# [3] = tested on: V79; test: Hypoxic cytotoxicity ratio, concentration required to kill 99% chinese hamster V79 cells under aerobic condition to hypoxic condition; format: functional, Cricetulus griseus
# [4] = tested on: Nucleic Acid; test: Induction of DNA cleavage in supercoiled pGL2 DNA assessed as open circular DNA form-2 under hypoxic condition with NADPH:cytochrome P450 enzyme system at 5 to 25 uM after 16 hrs by agarose gel electrophoresis; format: nucleic-acid assay
# [5] = tested on: Nucleic Acid; test: Induction of DNA cleavage in supercoiled pGL2 DNA assessed as open circular DNA form-2 under hypoxic condition with NADPH:cytochrome P450 enzyme system at 25 uM after 16 hrs by agarose gel electrophoresis in presence of radical scavenging agent methanol; format: nucleic-acid assay
# [6] = tested on: Nucleic Acid; test: Induction of DNA cleavage in supercoiled pGL2 DNA assessed as open circular DNA form-2 under hypoxic condition with NADPH:cytochrome P450 enzyme system at 25 uM after 16 hrs by agarose gel electrophoresis in presence of radical scavenging agent ethanol; format: nucleic-acid assay
# [7] = tested on: Nucleic Acid; test: Induction of DNA cleavage in supercoiled pGL2 DNA assessed as open circular DNA form-2 under hypoxic condition with NADPH:cytochrome P450 enzyme system at 25 uM after 16 hrs by agarose gel electrophoresis in presence of radical scavenging agent t-butanol; format: nucleic-acid assay
# [8] = tested on: Nucleic Acid; test: Induction of DNA cleavage in supercoiled pGL2 DNA assessed as open circular DNA form-2 under hypoxic condition with NADPH:cytochrome P450 enzyme system at 25 uM after 16 hrs by agarose gel electrophoresis in presence of radical scavenging agent DMSO; format: nucleic-acid assay
# [9] = tested on: Nucleic Acid; test: Induction of DNA cleavage in supercoiled pGL2 DNA assessed as open circular DNA form-2 under hypoxic condition with NADPH:cytochrome P450 enzyme system at 25 uM after 16 hrs by agarose gel electrophoresis in presence of radical scavenging agent mannitol; format: nucleic-acid assay
# [10] = tested on: Nucleic Acid; test: Induction of DNA cleavage in supercoiled pGL2 DNA assessed as open circular DNA form-2 under hypoxic condition with xanthine/xanthine oxidase enzyme system at 20 uM after 16 hrs by agarose gel electrophoresis; format: nucleic-acid assay
# [11] = tested on: V79; test: Cytotoxicity against chinese hamster V79 cells under aerobic condition at 2.5 uM after 7 days by crystal violet staining; format: functional, Cricetulus griseus
# [12] = tested on: V79; test: Cytotoxicity against chinese hamster V79 cells under anaerobic condition at 0.21 uM after 7 days by crystal violet staining; format: functional, Cricetulus griseus
structure (smiles),measurement,setting,value
Nc1n[n+]([O-])c2ccccc2[n+]1[O-] [TIRAPAZAMINE],Activity,[1],99%
same,Activity,[2],99%
same,Ratio,[3],75
O=C(c1cccs1)c1c(C(F)(F)F)nc2ccc(Cl)cc2[n+]1[O-],Activity,[4],inactive
O=C(c1cccs1)c1c(C(F)(F)F)[n+]([O-])c2ccc(Cl)cc2[n+]1[O-],Activity,[4],Active
same,Activity,[5],inactive
same,Activity,[6],inactive
same,Activity,[7],inactive
same,Activity,[8],inactive
same,Activity,[9],inactive
same,Activity,[10],Active
same,Activity,[11],99%
same,Activity,[12],99%
same,Ratio,[3],16
O=C(c1cccs1)c1nc2cc(Cl)ccc2[n+]([O-])c1C(F)(F)F,Activity,[4],inactive
